Assay results published in ChEMBL document CHEMBL4190406, “Discovery of Potent, Selective, and Peripherally Restricted Pan-Trk Kinase Inhibitors for the Treatment of Pain” (J Med Chem, 2018).

Legend:
[1] = in vitro; settings: human, hepatocytes
[2] = physchem; settings: buffer, pH 7.4
[3] = Drug metabolism in human hepatocytes assessed as CYP450-mediated metabolite formation at 1 uM up to 240 mins by LC-MS/MS analysis; type: ADME, cell-based; settings: 4 h
[4] = Clearance in iv dosed rat administered as 4 hrs infusion; type: ADME, organism-based; settings: in vivo
[5] = Ratio of unbound brain to plasma concentration in iv dosed rat administered as 4 hrs infusion by equilibrium dialysis method; type: ADME, organism-based; settings: brain and plasma, read-out: K(p,uu,brain)
[6] = in vitro; settings: human, liver microsomes
[7] = in vitro; settings: dog, MDCK
[8] = Oral bioavailability in rat; type: ADME, organism-based; settings: in vivo

hepatocyte CLint at 4 h, 1 µM [1]: 8 µL/min/1e6 cells
logD [2]: 2.9
Drug metabolism [3]: Metabolite_Detected
clearance [4]: 38 mL/min/kg
Kp uu at 4 h [5]: 0.0065
microsomal CLint at 1 h, 1 µM [6]: < 8 µL/min/mg
Papp A→B [7]: 10 ×10⁻⁶ cm/s
bioavailability [8]: 45%
SMILES: Cn1cnc(-c2ccc(OC3CCN(C(=O)Cc4ccc(OC(F)(F)F)cc4)CC3)c(C(N)=O)c2)c1
